Like-named read-outs stand apart in the source and are kept apart here. Starred links: 1 amine or outer side, 2 acyl side, 3 side chain; linkers in the order of their positions; H or OH if unused. Positions of bridges follow the written chain, without caps; N, C: chain ends. Non-standard residues stand in square brackets, D forms with d. Residues, ends and D or L forms follow the SMILES beside them. *: point of attachment. hNle(7,7-F2) = N[C@@H](CCCCC(F)F)C(=O)O; NMehPhe = CN[C@@H](CCc1ccccc1)C(=O)O; dNMehPhe = CN[C@H](CCc1ccccc1)C(=O)O; NMeF = CN[C@@H](Cc1ccccc1)C(=O)O; NMeGABA = CN(CCCC(=O)[*:2])[*:1]; hPhe = N[C@@H](CCc1ccccc1)C(=O)O; NMeL = CN[C@@H](CC(C)C)C(=O)O; NMeV = CN[C@H](C(=O)O)C(C)C; NMeAbu = CC[C@H](NC)C(=O)O; NMeA = CN[C@@H](C)C(=O)O; Piperidide = C1CCN(*)CC1; Abu = CC[C@H](N)C(=O)O; Sar = CNCC(=O)O; tBu = CC(C)(C)*; Propyl = CCC*
Experiment: Caco-2 membrane permeability, improved method as used in the following Examples (96-well, 20 to 24 h preincubation)
Assay type: in vitro ADME
Conditions: human
Procedure, shortened: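 Caco-2 monolayers were grown three weeks and preincubated 20–24 h at 37 °C with compound in DMEM+FaSSIF (1% DMSO) apically. The assay then used compound in FaSSIF/HBSS (1% DMSO, pH 6.0) apically and HBSS with 4% BSA (pH 7.4) basally. Basal samples were taken at 180 min for LC/MS, and Papp (cm/sec) was calculated.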

In the case of CC[C@H](C)[C@@H]1NC(=O)[C@H](CC(C)C)N(C)C(=O)CCCN(C)C(=O)C[C@@H](C(=O)N2CCCCC2)NC(=O)[C@H](CC(C)C)N(C)C(=O)[C@H](C)N(C)C(=O)[C@H]([C@@H](C)O)NC(=O)[C@H](CC(C)C)N(C)C(=O)[C@H](CCc2ccccc2)NC(=O)[C@H](CC(C)C)N(C)C(=O)[C@H](Cc2ccccc2)N(C)C1=O [pd316] ([NMeGABA][NMeL]I[NMeF][NMeL][hPhe][NMeL]T[NMeA][NMeL]D-Piperidide; lactam N-11), the Papp A→B at 180 min (Caco-2, Caco-2) is reported as 1.4 ×10⁻⁶ cm/s.

Molecule CC(C)C[C@H]1C(=O)N[C@H](C(=O)N2CCCCC2)CC(=O)N(C)CCCC(=O)N(C)[C@@H](CC(C)C)C(=O)N[C@@H](CCc2ccccc2)C(=O)N(C)[C@@H](CC(C)C)C(=O)N(C)[C@@H](Cc2ccccc2)C(=O)N[C@@H](COC(C)(C)C)C(=O)N(C)[C@@H](CC(C)C)C(=O)N[C@@H]([C@@H](C)O)C(=O)N(C)CC(=O)N1C [pd317] ([NMeGABA][NMeL][hPhe][NMeL][NMeF]S(tBu)[NMeL]T[Sar][NMeL]D-Piperidide; lactam N-11) has a Papp A→B at 180 min (Caco-2, Caco-2) of 1.8 ×10⁻⁶ cm/s.

Molecule CC(C)C[C@H]1C(=O)N[C@H](C(=O)N2CCCCC2)CC(=O)N(C)[C@@H](C)C(=O)N[C@@H](C(C)C)C(=O)N(C)[C@@H](CC(C)C)C(=O)N(C)[C@@H](Cc2ccccc2)C(=O)N[C@@H](C)C(=O)N(C)[C@@H](C)C(=O)N(C)[C@@H](CC(C)C)C(=O)N[C@@H](CCc2ccccc2)C(=O)N(C)CC(=O)N1C [pd318] ([NMeA]V[NMeL][NMeF]A[NMeA][NMeL][hPhe][Sar][NMeL]D-Piperidide; lactam N-11) has a Papp A→B at 180 min (Caco-2, Caco-2) of 2.5 ×10⁻⁶ cm/s.

For CC(C)C[C@H]1C(=O)N[C@@H]([C@@H](C)O)C(=O)N(C)CC(=O)N(C)[C@@H](Cc2ccccc2)C(=O)N(C)[C@@H](CC(C)C)C(=O)N[C@@H](C(C)C)C(=O)N(C)[C@@H](CC(C)C)C(=O)N[C@H](C(=O)N2CCCCC2)CC(=O)N(C)CC(=O)N(C)[C@@H](C(C)C)C(=O)N[C@@H](CCc2ccccc2)C(=O)N1C [pd319] ([Sar][NMeV][hPhe][NMeL]T[Sar][NMeF][NMeL]V[NMeL]D-Piperidide; lactam N-11), the Papp A→B at 180 min (Papp, Caco-2 membrane permeability, improved method, read-out: Caco-2) was 2.2 ×10⁻⁶ cm/s.

CC[C@H]1C(=O)N[C@@H]([C@@H](C)O)C(=O)N(C)CC(=O)N(C)[C@@H](CC(C)C)C(=O)N[C@@H](CC(C)C)C(=O)N(C)[C@@H](Cc2ccccc2)C(=O)N(C)[C@@H](CC(C)C)C(=O)N[C@H](C(=O)N2CCCCC2)CC(=O)N[C@H](C(C)C)C(=O)N(C)[C@@H](CCc2ccccc2)C(=O)N[C@@H](CC(C)C)C(=O)N1C [pd320] ([dV][NMehPhe]L[NMeAbu]T[Sar][NMeL]L[NMeF][NMeL]D-Piperidide; lactam N-11) showed a Papp A→B at 180 min (Caco-2, Caco-2) of 1.7 ×10⁻⁶ cm/s.

For CC(C)C[C@@H]1NC(=O)[C@H](CC(C)C)N(C)C(=O)CN(C)C(=O)[C@H]([C@@H](C)O)NC(=O)[C@H](CC(C)C)N(C)C(=O)[C@H](C(C)C)NC(=O)[C@H](Cc2ccccc2)N(C)C(=O)[C@@H](C)NC(=O)C[C@@H](C(=O)N2CCCCC2)NC(=O)[C@H](CC(C)C)N(C)C(=O)[C@H](CCc2ccccc2)N(C)C1=O [pd321] ([dA][NMeF]V[NMeL]T[Sar][NMeL]L[NMehPhe][NMeL]D-Piperidide; lactam N-11), the Papp A→B at 180 min (Caco-2, Caco-2) was 1.3 ×10⁻⁶ cm/s.

With CC[C@@H]1NC(=O)[C@@H](CCc2ccccc2)N(C)C(=O)[C@H](CC(C)C)N(C)C(=O)[C@H](CC(C)C)NC(=O)[C@H](C)N(C)C(=O)C[C@@H](C(=O)N2CCCCC2)NC(=O)[C@H](CC(C)C)N(C)C(=O)CN(C)C(=O)[C@H]([C@@H](C)O)NC(=O)[C@H](CC(C)C)N(C)C(=O)[C@H](Cc2ccccc2)N(C)C1=O [pd322] ([NMeA]L[NMeL][dNMehPhe][Abu][NMeF][NMeL]T[Sar][NMeL]D-Piperidide; lactam N-11) the Papp A→B at 180 min (Caco-2, Caco-2) was 3.1 ×10⁻⁶ cm/s.

In the case of CC(C)C[C@@H]1NC(=O)[C@H](C)N(C)C(=O)C[C@@H](C(=O)N2CCCCC2)NC(=O)[C@H](CC(C)C)N(C)C(=O)CN(C)C(=O)[C@H]([C@@H](C)O)NC(=O)[C@H](CC(C)C)N(C)C(=O)[C@H](CCc2ccccc2)N(C)C(=O)[C@H](CC(C)C)NC(=O)[C@H](Cc2ccccc2)N(C)C(=O)[C@H](CC(C)C)N(C)C1=O [pd323] ([NMeA]L[NMeL][NMeF]L[NMehPhe][NMeL]T[Sar][NMeL]D-Piperidide; lactam N-11), the Papp A→B at 180 min (Caco-2, Caco-2) is reported as 2.3 ×10⁻⁶ cm/s.

CC[C@H](C)[C@@H]1NC(=O)[C@H](Cc2ccccc2)N(C)C(=O)CN(C)C(=O)C[C@@H](C(=O)N2CCCCC2)NC(=O)[C@H](CC(C)C)N(C)C(=O)[C@H](COC(C)(C)C)NC(=O)[C@H](CC(C)C)N(C)C(=O)[C@H](CCc2ccccc2)N(C)C(=O)CN(C)C(=O)[C@H]([C@@H](C)O)NC(=O)[C@H](CC(C)C)N(C)C1=O [pd324] ([Sar][NMeF]I[NMeL]T[Sar][NMehPhe][NMeL]S(tBu)[NMeL]D-Piperidide; lactam N-11) showed a Papp A→B at 180 min (Caco-2, Caco-2) of 3.3 ×10⁻⁶ cm/s.

CCCOC[C@@H]1NC(=O)[C@H](CC(C)C)N(C)C(=O)CN(C)C(=O)[C@H]([C@@H](C)O)NC(=O)[C@H](CC(C)C)N(C)C(=O)[C@H](CC(C)C)NC(=O)[C@H](Cc2ccccc2)N(C)C(=O)[C@@H](C(C)C)NC(=O)C[C@@H](C(=O)N2CCCCC2)NC(=O)[C@H](CC(C)C)N(C)C(=O)[C@H](Cc2ccccc2)N(C)C1=O [pd325] ([dV][NMeF]L[NMeL]T[Sar][NMeL]S(Propyl)[NMeF][NMeL]D-Piperidide; lactam N-11) gave a Papp A→B at 180 min (Caco-2, Caco-2) of 2.2 ×10⁻⁶ cm/s.

Molecule CCCOC[C@@H]1NC(=O)[C@H](CC(C)C)N(C)C(=O)[C@H](C(C)C)NC(=O)[C@H](Cc2ccccc2)N(C)C(=O)[C@@H](C(C)C)NC(=O)C[C@@H](C(=O)N2CCCCC2)NC(=O)[C@H](C)N(C)C(=O)[C@H](Cc2ccccc2)N(C)C(=O)[C@H](COC(C)(C)C)NC(=O)[C@H](CC(C)C)N(C)C(=O)CN(C)C1=O [pd326] ([dV][NMeF]V[NMeL]S(Propyl)[Sar][NMeL]S(tBu)[NMeF][NMeA]D-Piperidide; lactam N-11) has a Papp A→B at 180 min (Caco-2, Caco-2) of 3.3 ×10⁻⁶ cm/s.

Molecule CCCOC[C@@H]1NC(=O)[C@H](Cc2ccccc2)N(C)C(=O)[C@@H](C(C)C)NC(=O)C[C@@H](C(=O)N2CCCCC2)NC(=O)[C@H](CC(C)C)N(C)C(=O)[C@H](Cc2ccccc2)N(C)C(=O)[C@H](COC(C)(C)C)NC(=O)[C@H](CC(C)C)N(C)C(=O)CN(C)C(=O)[C@H]([C@@H](C)O)NC(=O)[C@H](CC(C)C)N(C)C1=O [pd327] ([dV][NMeF]S(Propyl)[NMeL]T[Sar][NMeL]S(tBu)[NMeF][NMeL]D-Piperidide; lactam N-11) has a Papp A→B at 180 min (Caco-2, Caco-2) of 3.1 ×10⁻⁶ cm/s.

Molecule CCCOC[C@@H]1NC(=O)[C@H](Cc2ccccc2)N(C)C(=O)[C@H](Cc2ccccc2)N(C)C(=O)[C@H](C(C)C)NC(=O)[C@H](CC(C)C)N(C)C(=O)CCCN(C)C(=O)C[C@@H](C(=O)N2CCCCC2)NC(=O)[C@H](CC(C)C)N(C)C(=O)[C@H](CC(C)C)N(C)C(=O)[C@H]([C@@H](C)O)NC(=O)[C@H](CC(C)C)N(C)C1=O [pd328] ([NMeGABA][NMeL]V[NMeF][NMeF]S(Propyl)[NMeL]T[NMeL][NMeL]D-Piperidide; lactam N-11) has a Papp A→B at 180 min (Caco-2, Caco-2) of 2.3 ×10⁻⁶ cm/s.

With CCCOC[C@@H]1NC(=O)[C@H](Cc2ccccc2)N(C)C(=O)[C@H](CC(C)C)N(C)C(=O)[C@H](CC(C)C)NC(=O)[C@H](C)N(C)C(=O)C[C@@H](C(=O)N2CCCCC2)NC(=O)[C@H](CC(C)C)N(C)C(=O)CN(C)C(=O)[C@H]([C@@H](C)O)NC(=O)[C@H](CC(C)C)N(C)C(=O)[C@H](Cc2ccccc2)N(C)C1=O [pd329] ([NMeA]L[NMeL][NMeF]S(Propyl)[NMeF][NMeL]T[Sar][NMeL]D-Piperidide; lactam N-11) the Papp A→B at 180 min (Caco-2, Caco-2) was 4.2 ×10⁻⁶ cm/s.

Work on CCCOC[C@@H]1NC(=O)[C@H](CC(C)C)N(C)C(=O)[C@H](Cc2ccccc2)N(C)C(=O)CN(C)C(=O)[C@H]([C@@H](C)O)NC(=O)[C@H](CC(C)C)N(C)C(=O)[C@H]([C@@H](C)CC)NC(=O)[C@H](Cc2ccccc2)N(C)C(=O)CN(C)C(=O)C[C@@H](C(=O)N2CCCCC2)NC(=O)[C@H](CC(C)C)N(C)C1=O [pd330] ([Sar][NMeF]I[NMeL]T[Sar][NMeF][NMeL]S(Propyl)[NMeL]D-Piperidide; lactam N-11) yielded a Papp A→B at 180 min (Caco-2, Caco-2) of 1.8 ×10⁻⁶ cm/s.

Work on CC(C)C[C@H]1C(=O)N[C@@H](COC(C)(C)C)C(=O)N(C)[C@@H](Cc2ccccc2)C(=O)N(C)[C@@H](C(C)C)C(=O)N[C@H](C(=O)N2CCCCC2)CC(=O)N[C@H](C(C)C)C(=O)N(C)[C@@H](Cc2ccccc2)C(=O)N[C@@H](CCCCC(F)F)C(=O)N(C)[C@@H](CC(C)C)C(=O)N[C@@H]([C@@H](C)O)C(=O)N(C)CC(=O)N1C [pd331] ([dV][NMeF][hNle(7,7-F2)][NMeL]T[Sar][NMeL]S(tBu)[NMeF][NMeV]D-Piperidide; lactam N-11) yielded a Papp A→B at 180 min (Caco-2, Caco-2) of 2.1 ×10⁻⁶ cm/s.

With CC(C)C[C@@H]1NC(=O)[C@H](Cc2ccccc2)N(C)C(=O)[C@@H](C(C)C)NC(=O)C[C@@H](C(=O)N2CCCCC2)NC(=O)[C@H](C(C)C)N(C)C(=O)[C@H](Cc2ccccc2)N(C)C(=O)[C@H](CCCCC(F)F)NC(=O)[C@H](CC(C)C)N(C)C(=O)CN(C)C(=O)[C@H]([C@@H](C)O)NC(=O)[C@H](CC(C)C)N(C)C1=O [pd332] ([dV][NMeF]L[NMeL]T[Sar][NMeL][hNle(7,7-F2)][NMeF][NMeV]D-Piperidide; lactam N-11) the Papp A→B at 180 min (Caco-2, Caco-2) was 1.5 ×10⁻⁶ cm/s.

Molecule CC[C@H](C)[C@@H]1NC(=O)[C@H](CC(C)C)N(C)C(=O)CCCN(C)C(=O)C[C@@H](C(=O)N2CCCCC2)NC(=O)[C@H](CC(C)C)N(C)C(=O)[C@H](C)N(C)C(=O)[C@H]([C@@H](C)O)NC(=O)[C@H](CC(C)C)N(C)C(=O)[C@H](CCCCC(F)F)NC(=O)[C@H](Cc2ccccc2)N(C)C(=O)[C@H](Cc2ccccc2)N(C)C1=O [pd333] ([NMeGABA][NMeL]I[NMeF][NMeF][hNle(7,7-F2)][NMeL]T[NMeA][NMeL]D-Piperidide; lactam N-11) has a Papp A→B at 180 min (Caco-2, Caco-2) of 1.3 ×10⁻⁶ cm/s.

Source: US20200131669A1, “CYCLIC PEPTIDE COMPOUND HAVING HIGH MEMBRANE PERMEABILITY, AND LIBRARY CONTAINING SAME” (Chugai Seiyaku Kabushiki Kaisha, priority 2017, published 2020)
